Measured values as given in US6436922B1, “5,11-dihydrobenzo[b,e][1,4]oxazepine derivatives and pharmaceutical compositions containing the same” (Ajinomoto Co., Inc., priority 1996, dated 2002).

Assays:
[1] = Decrease in the body temperature of rats; format: in vivo; settings: rat, 100 mg/kg p.o.; for change in body temperature 1 hour: rectal temperature after 1 hour; for change in body temperature 2 hour: rectal temperature after 2 hours; for change in body temperature 5 hour: rectal temperature after 5 hours
Experimental: Decrease in the body temperature of rats:
A suspension of 100 mg/kg of a test compound in 0.5% methyl cellulose was orally administered to each of Crj:CD male rats (from 7 to 8 weeks old), and the body temperature (temperature of the rectum) after 1, 2 or 5 hours was measured using a thermistor thermometer, and the difference in the body temperature between the compound of the present invention and the comparative substance is shown in Table 4.

[2] = test system: rat pupillary diameter; assay: Anticholinergic activity by mydriasis of rats; format: in vivo; settings: for rat pupillary diameter (mm) 1 hour / rat pupillary diameter (mm) 2 hours / rat pupillary diameter (mm) 6 hours: 300 mg/kg p.o.; for rat pupillary diameter (mm) 1 hour: after 1 hour; for rat pupillary diameter (mm) 2 hours: after 2 hours; for rat pupillary diameter (mm) 6 hours: after 6 hours; for rat pupillary diameter (mm) before: before administration of 300 mg/kg p.o.
Experimental: Anticholinergic activity by mydriasis of rats: […] The diameter of the pupil after 1, 2 or 6 hours was measured using a stereoscopic microscope of 5x magnification.

[3] = test system: WRS-induced defecation; assay: Inhibition of acceleration of stool excretion in a wrap restraint stress (WRS) model; format: in vivo; settings: rat, p.o. 30 minutes before stress, stool over 1 hour, Litchfield-Wilcoxon method
Experimental: In-vivo test [effect of inhibiting acceleration of stool excretion in a wrap restraint stress (WRS) model]:
The test was conducted by the method of William et al. [Gastroenterology, 94, 611 (1988)]. That is, each of Crj:CD male rats (from 6 to 7 weeks old) was slightly etherized, and the fore shoulder, the foreleg and the chest thereof were wrapped with a paper tape to apply stress thereto. The rat was allowed to stand under stress for 1 hour, and the amount of stool excreted during that time was measured. The test compound was orally administered to the rat 30 minutes before applying the stress thereto. The normal group was etherized, and then allowed to stand for 1 hour without applying stress thereto. Thereafter, the amount of stool excreted was measured. In this test, nicardipine and Compound A were used as comparative substances. The 50% inhibition dose (ID50) relative to the increase in the […] of stool owing to WRS was calculated by the Litchfield-Wilcoxon method, and the results are shown in Table 2-1. In addition, and inhibition of test compounds (lomg/kg, p.o.) expressed as a percentage of control were determined and the results were shown in Table 2—2.

[4] = Acute toxicity test; settings: ddy, mouse, in vivo, ip; male mice, i.p., mortality observed for 7 days; read-out: 50% lethal dose (LD50, mg/kg, i.p.)
[5] = test system: tail artery pressure; assay: Decrease in the blood pressure in rats (tail cuff method); format: in vivo; settings: rat, dose causing 20 mmHg decrease in blood pressure 1 hour after administration
Experimental: Decrease in the blood pressure in rats:
This test was conducted by the tail cuff method. That is, each of Crj:CD male rats (from 8 to 9 weeks old) had been warmed to fully expand the tail artery. The tail artery pressure was then measured immediately before, and 1 hour after, the oral administration of the test compound using a non-invasive blood pressure measuring device. In this test, nicardipine and Compound A were used as comparative substances. With respect to the decrease in the blood pressure, a dose at which to cause the decrease in the blood pressure by 20 mmHg from the blood pressure immediately before the administration was calculated as ED20 from the regression line of the decrease (mmHg) in the blood pressure relative to the logarism of the dose of the test compound. As is clear from Tables 2-1 and 2—2, the compound of the present invention has a higher selectivity for the intestinal tract than Compound A, and it can be an excellent agent of improving an abnormal moving function of the digestive tract.

[6] = test system: Crj:CD male rats; assay: Test for a toxicity in continuous administration for 1 week; format: in vivo; settings: rat, 100 mg/kg p.o. once daily for 1 week
Experimental: Test for a toxicity in continuous administration for 1 week:
A suspension of 100 mg/kg of the compound in Example 2 or 12 in 0.5% methyl cellulose was orally administered to each of Crj:CD male rats (6 weeks old) continuously for 1 week at a rate of one administration per day to observe general conditions, to measure the body weight, to conduct biochemical inspection of the blood, to measure the weights of the internal organs and to conduct pathological inspection.

Cl.c1ccc2c(c1)COc1ccccc1N2C[C@@H]1CCCN1CCc1ccc2c(c1)OCO2
melting point: 158 to 162 °C

Cl.Fc1ccc(CCN2CCC[C@@H]2CN2c3ccccc3COc3ccccc32)cc1 [Example 4, (R)-(+)-5,11-dihydro-5-[1-(4-fluorophenethyl)-2-pyrrolidinylmethyl]dibenzo[b,e][1,4]oxazepine hydrochloride]
change in body temperature 1 hour [1]: −0.3
change in body temperature 2 hour [1]: −0.2
change in body temperature 5 hour [1]: +0.1
rat pupillary diameter (mm) 1 hour [2]: 0.70 mm
rat pupillary diameter (mm) 2 hours [2]: 0.57 mm
rat pupillary diameter (mm) 6 hours [2]: 0.70 mm
rat pupillary diameter (mm) before [2]: 0.80 mm
Inhibitory effect on WRS-induced defecation (ID50, mg/kg, p.o.) [3]: 1.8 mg/kg
LD50 at 7 days [4]: > 200 mg/kg
Hypotensive effect (ED20, mg/kg, p.o.) [5]: >1000 mg/kg

COc1ccc(CCN2CCC[C@@H]2CN2c3ccccc3COc3ccccc32)cc1.Cl [Example 2, (R)-(+)-5,11-dihydro-5-[1-(4-methoxyphenethyl)-2-pyrrolidinylmethyl]-dibenzo[b,e][1,4]oxazepine hydrochloride]
toxicity findings (general conditions, body weight, blood biochemistry, organ weights, pathology) [6]: no remarkable change was observed
change in body temperature 1 hour [1]: 0
change in body temperature 2 hour [1]: −0.1
change in body temperature 5 hour [1]: −0.2
rat pupillary diameter (mm) 1 hour [2]: 0.90 mm
rat pupillary diameter (mm) 2 hours [2]: 0.77 mm
rat pupillary diameter (mm) 6 hours [2]: 0.97 mm
rat pupillary diameter (mm) before [2]: 0.97 mm
Inhibitory effect on WRS-induced defecation (ID50, mg/kg, p.o.) [3]: 3.1 mg/kg
LD50 at 7 days [4]: 175 mg/kg
Hypotensive effect (ED20, mg/kg, p.o.) [5]: >1000 mg/kg

COc1ccc(CCN2CCC[C@H]2CN2c3ccccc3COc3ccccc32)cc1OC.Cl
melting point: 106 to 109 °C

COc1cccc(CCN2CCC[C@H]2CN2c3ccccc3COc3ccccc32)c1.Cl
melting point: 164 to 166 °C

COC(=O)C1=C(C)NC(C)=C(C(=O)OCCN(C)Cc2ccccc2)C1c1cccc([N+](=O)[O-])c1 (centres unmarked) [nicardipine, reference compound]
Inhibitory effect on WRS-induced defecation (ID50, mg/kg, p.o.) [3]: 6.8 mg/kg
Hypotensive effect (ED20, mg/kg, p.o.) [5]: 4.0 mg/kg

COc1ccc(CCN2CCC[C@H]2CN2c3ccccc3COc3ccccc32)cc1.Cl [Example 12, (S)-(−)-5,11-dihydro-5-[1-(4-methoxyphenethyl)-2-pyrrolidinylmethyl]dibenzo[b,e][1,4]oxazepine hydrochloride]
toxicity findings (general conditions, body weight, blood biochemistry, organ weights, pathology) [6]: no remarkable change was observed
LD50 at 7 days [4]: > 280 mg/kg

Cl.c1ccc(CCN2CCC[C@@H]2CN2c3ccccc3COc3ccccc32)cc1
melting point: 179 to 182 °C

COc1ccc(CCN2CCC[C@@H]2CN2c3ccccc3COc3ccccc32)cc1OC.Cl
melting point: 106 to 109 °C

Cl.N#Cc1ccc(CCN2CCC[C@@H]2CN2c3ccccc3COc3ccccc32)cc1
melting point: 109 to 112 °C

COc1ccc(CCN2CCC[C@H]2CN2c3ccccc3CSc3ccccc32)cc1.Cl [Compound A, reference compound]
change in body temperature 1 hour [1]: −0.5
change in body temperature 2 hour [1]: −0.6
change in body temperature 5 hour [1]: −0.5
rat pupillary diameter (mm) 1 hour [2]: 2.18 mm
rat pupillary diameter (mm) 2 hours [2]: 2.27 mm
rat pupillary diameter (mm) 6 hours [2]: 2.62 mm
rat pupillary diameter (mm) before [2]: 0.85 mm
Inhibitory effect on WRS-induced defecation (ID50, mg/kg, p.o.) [3]: 34.8 mg/kg
LD50 at 7 days [4]: 162 mg/kg
Hypotensive effect (ED20, mg/kg, p.o.) [5]: >100 mg/kg
